Structures are written as SMILES. pIC50: −log10 of the molar value.

The target in the assay is T1, human DGAT1 enzyme (Homo sapiens, UniProt O75907).
T1 construct: made in house; host or cells: Sf9 insect cells (microsomes)
T1 sequence (O75907 1-488): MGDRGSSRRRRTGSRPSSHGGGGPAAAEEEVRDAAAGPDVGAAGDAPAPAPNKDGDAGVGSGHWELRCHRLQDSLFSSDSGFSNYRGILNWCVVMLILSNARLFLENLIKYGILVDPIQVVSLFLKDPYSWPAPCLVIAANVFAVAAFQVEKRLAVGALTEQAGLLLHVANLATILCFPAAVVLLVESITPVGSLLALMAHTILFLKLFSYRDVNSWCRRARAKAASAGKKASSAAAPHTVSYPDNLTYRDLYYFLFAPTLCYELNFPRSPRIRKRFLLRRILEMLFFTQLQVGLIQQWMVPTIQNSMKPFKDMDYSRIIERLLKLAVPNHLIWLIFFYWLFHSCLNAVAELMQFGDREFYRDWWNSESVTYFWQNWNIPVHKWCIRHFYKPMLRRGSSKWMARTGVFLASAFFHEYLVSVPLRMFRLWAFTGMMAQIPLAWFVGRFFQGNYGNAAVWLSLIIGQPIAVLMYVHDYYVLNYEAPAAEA
Briefly: in vitro DGAT1 inhibition assay (microsomes, [14C]-palmitoyl-CoA, scintillation proximity). It is filed as biochemical. The note with it: human DGAT1 expressed in Sf9 insect cell microsomes; 2 hours at room temperature; read-out: hDGAT IC50. How it is done: A useful assay to determine the DGAT inhibitory activity of the inventive compounds is described below:
The in vitro assay to identify DGAT1 inhibitors uses human DGAT1 enzyme expressed in Sf9 insect cells prepared as microsomes. The reaction is initiated by the addition of the combined substrates 1,2-dioleoyl-sn-glycerol and [^14C]-palmitoyl-CoA and incubated with test compounds and microsomal membranes for 2 hours at room temperature. The assay is stopped by adding 0.5 mg wheat germ agglutinin beads in assay buffer with 1% Brij-35 and 1% 3-cholamidopropyldimethyl-ammonio-1-propane sulfonate. Plates are sealed with TopSeal and incubated for 18 hours to allow the radioactive triglyceride product to come into proximity with the bead. Plates are read on a TopCount instrument.
Percent inhibition was calculated as the percent of (test compound inhibition minus non-specific binding) relative to (total binding minus non-specific binding). IC50 values were determined by curve fitting the data to a Sigmoidal dose-response in GraphPad Prism utilizing the following equation:
Y=A+(B−A)/(1+10̂((Log IC50−X))),
where A and B are the bottom and top of the curve (highest and lowest inhibition), respectively, and X is the logarithm of concentration.
Regarding `CN(CCc1ccccc1)c1nc(C(F)(F)F)c(C(=O)Nc2ccc(N3CCN(C(=O)Nc4ccccc4F)CC3)nc2)o1` [Compound 316, N-(6-(4-(2-fluorophenylcarbamoyl)piperazin-1-yl)pyridin-3-yl)-2-(methyl(phenethyl)amino)-4-(trifluoromethyl)oxazole-5-carboxamide], the negative logarithm of the IC50 (pIC50) was 7.00 to 7.96.

Take `CC1CCCN(c2nc(C(F)(F)F)c(C(=O)Nc3ccc(N4CCN(C(=O)Nc5ccccc5F)CC4)cn3)o2)C1` (centres unmarked) [Compound 236, N-(5-(4-(2-fluorophenylcarbamoyl)piperazin-1-yl)pyridin-2-yl)-2-(3-methylpiperidin-1-yl)-4-(trifluoromethyl)oxazole-5-carboxamide]: the pIC50 was 7.00 to 7.96.

As to `O=C(Nc1ccc(N2CCN(C(=O)[C@H]3CC[C@H](C(=O)O)CC3)CC2)nc1)c1oc(N2CCC(c3ccccc3)CC2)nc1C(F)(F)F` [Compound 296, trans-4-(4-(5-(2-(4-phenylpiperidin-1-yl)-4-(trifluoromethyl)oxazole-5-carboxamido)pyridin-2-yl)piperazine-1-carbonyl)cyclohexanecarboxylic acid], the negative-log IC50 (pIC50) is 7.00 to 7.96.

`Cc1ccccc1NC(=O)c1ccc(-c2ccc(NC(=O)c3sc(CN(C)c4ccccc4)nc3C(F)(F)F)nc2)cc1` [Compound 250, 2-((methyl(phenyl)amino)methyl)-N-(5-(4-(o-tolylcarbamoyl)phenyl)pyridin-2-yl)-4-(trifluoromethyl)thiazole-5-carboxamide]: the pIC50 is 6.30 to 7.00.

`O=C(Nc1ccc(N2CCN(C(=O)Nc3ccccc3F)CC2)nc1)c1oc(N2CCC(c3ccc(Cl)cc3)CC2)nc1C(F)(F)F` [Compound 273, 2-(4-(4-chlorophenyl)piperidin-1-yl)-N-(6-(4-(2-fluorophenylcarbamoyl)piperazin-1-yl)pyridin-3-yl)-4-(trifluoromethyl)oxazole-5-carboxamide]: the pIC50 is 7.00 to 7.96.

`CC1CCCN(c2nc(C(F)(F)F)c(C(=O)Nc3ccc(-c4ccc(C(=O)O)nc4)cc3)o2)C1` (centres unmarked) [Compound 229, 5-(4-(2-(3-methylpiperidin-1-yl)-4-(trifluoromethyl)oxazole-5-carboxamido)phenyl)picolinic acid]: the pIC50 is 6.30 to 7.00.

Take `O=C(Nc1ccc(N2CCN(C(=O)c3ccccc3F)CC2)nc1)c1oc(N2CCC(c3ccccc3)CC2)nc1C(F)(F)F` [Compound 284, N-(6-(4-(2-fluorobenzoyl)piperazin-1-yl)pyridin-3-yl)-2-(4-phenylpiperidin-1-yl)-4-(trifluoromethyl)oxazole-5-carboxamide]: the pIC50 is 6.30 to 7.00.

On to `O=C(Nc1ccc(N2CCN(C(=O)Nc3ccccc3F)CC2)nc1)c1oc(N2CCCCCC2)nc1C(F)(F)F` [Compound 334, 2-(azepan-1-yl)-N-(6-(4-(2-fluorophenylcarbamoyl)piperazin-1-yl)pyridin-3-yl)-4-(trifluoromethyl)oxazole-5-carboxamide], for which the pIC50 is 7.00 to 7.96.

Take `CN(Cc1nc(C(F)(F)F)c(C(=O)Nc2ccc(N3CCN(C(=O)Nc4ccccc4F)CC3)nc2)s1)c1ccccc1` [Compound 247, N-(6-(4-(2-fluorophenylcarbamoyl)piperazin-1-yl)pyridin-3-yl)-2-((methyl(phenyl)amino)methyl)-4-(trifluoromethyl)thiazole-5-carboxamide]: the negative-log IC50 (pIC50) is 6.30 to 7.00.

Regarding `CC1CCCN(c2nc(C(F)(F)F)c(C(=O)Nc3ccc(N4CCN(C(=O)Nc5ccccc5F)C[C@@H]4C)nc3)o2)C1` (stereo partly drawn) [Compound 315, N-(6-((S)-4-(2-fluorophenylcarbamoyl)-2-methylpiperazin-1-yl)pyridin-3-yl)-2-(3-methylpiperidin-1-yl)-4-(trifluoromethyl)oxazole-5-carboxamide], the negative logarithm of the IC50 (pIC50) was 6.30 to 7.00.

Turning to `O=C(CN1CCN(c2ccc(NC(=O)c3oc(N4CCC(c5ccccc5)CC4)nc3C(F)(F)F)cn2)CC1)c1ccccc1F` [Compound 289, N-(6-(4-(2-(2-fluorophenyl)-2-oxoethyl)piperazin-1-yl)pyridin-3-yl)-2-(4-phenylpiperidin-1-yl)-4-(trifluoromethyl)oxazole-5-carboxamide], the pIC50 is 6.30 to 7.00.

Turning to `CC1CCCN(c2nc(C(F)(F)F)c(C(=O)Nc3ccc(N4CCN(C(=O)[C@H]5CC[C@H](C(=O)O)CC5)CC4)nc3)o2)C1` (stereo partly drawn) [Compound 341, trans-4-[[4-[5-[[[2-(3-methyl-1-piperidinyl)-4-(trifluoromethyl)-5-oxazolyl]carbonyl]amino]-2-pyridinyl]-1-piperazinyl]carbonyl]cyclohexanecarboxylic acid], the pIC50 is 6.30 to 7.00.

Take `CC1CCCN(c2nc(C(F)(F)F)c(C(=O)Nc3ccc(O[C@@H]4CCN(C(=O)Nc5ccccc5F)C4)nc3)o2)C1` (stereo partly drawn) [Compound 263, N-(6-((R)-1-(2-fluorophenylcarbamoyl)pyrrolidin-3-yloxy)pyridin-3-yl)-2-(3-methylpiperidin-1-yl)-4-(trifluoromethyl)oxazole-5-carboxamide]: the negative-log IC50 (pIC50) was 7.00 to 7.96.

Take `O=C(Nc1ccc(N[C@H]2CCN(C(=O)Nc3ccccc3F)C2)nc1)c1oc(N2CCC(c3ccccc3)CC2)nc1C(F)(F)F` [Compound 257, (S)—N-(6-(1-(2-fluorophenylcarbamoyl)pyrrolidin-3-ylamino)pyridin-3-yl)-2-(4-phenylpiperidin-1-yl)-4-(trifluoromethyl)oxazole-5-carboxamide]: the negative-log IC50 (pIC50) is 6.30 to 7.00.

Take `Cc1ccccc1NC(=O)c1ccc(-c2ccc(NC(=O)c3oc(N4CCCC(C)C4)nc3C(F)(F)F)cc2)cn1` (centres unmarked) [Compound 232, 2-(3-methylpiperidin-1-yl)-N-(4-(6-(o-tolylcarbamoyl)pyridin-3-yl)phenyl)-4-(trifluoromethyl)oxazole-5-carboxamide]: the pIC50 was 7.00 to 7.96.

As to `Cc1ccccc1NC(=O)c1ccc(-c2ccc(NC(=O)c3oc(N4CCCC(C)C4)nc3C(F)(F)F)cn2)cc1` (centres unmarked) [Compound 333, 2-(3-methylpiperidin-1-yl)-N-(6-(4-(o-tolylcarbamoyl)phenyl)pyridin-3-yl)-4-(trifluoromethyl)oxazole-5-carboxamide], the pIC50 was 7.00 to 7.96.

Regarding `O=C(Nc1ccc(N2CCN(C(=O)Nc3ccccc3F)CC2)nc1)c1oc(N2CCC(O)(c3ccccc3)CC2)nc1C(F)(F)F` [Compound 324, N-(6-(4-(2-fluorophenylcarbamoyl)piperazin-1-yl)pyridin-3-yl)-2-(4-hydroxy-4-phenylpiperidin-1-yl)-4-(trifluoromethyl)oxazole-5-carboxamide], the pIC50 is 6.30 to 7.00.

Source of the values: patent US20110224136A1, “INHIBITORS OF DIACYLGLYCEROL ACYLTRANSFERASE” (priority 2008, published 2011).
